Measurements as given in patent publication US8685976B2, “Cell adhesion promoting agent and method of promoting cell adhesion” (Kyoto University, priority 2008, dated 2014).

Legend:
[1] = system: focal adhesion kinase (FAK); test: Western blotting, FAK activation; type: cell-based, human; settings: Jurkat
Protocol: (§1) Jurkat cells were treated with adhesamine (6 μM) in a serum-poor culture medium (0.1% FBS) for the indicated periods of time. The treated cell lysates were Western blotted with antibodies against FAK phospho-tyrosine^397 (pFAK), FAK, ERK1/2 phospho-threonine^202/tyrosine^204 (pERK) or ERK. In (B), Jurkat cells were incubated for 5 hours with varied concentrations of adhesamine or poly-L-lysine. The cell lysates were Western blotted with antibodies against FAK phospho-tyrosine^397 or FAK. […] The concentration of adhesamine (1) was 6 μM.
(§2) Jurkat cells were maintained in an RPMI medium containing 10% FBS. 5-6 million Jurkat cells were dispensed to a well of a 6-well plate in a final volume of 2 mL, and then incubated at 37° C. for 0-5 hours in the presence of adhesamine or poly-L-lysine. Non-adherent cells were removed and pelleted, and the remaining adherent cells were lysed in a 125 mM Tris-HCl buffer (pH 6.8) containing 4% SDS, 10% glycerol, 0.006% bromophenol blue, and 1.8% β-mercaptoethanol. The adherent cell homogenate was combined with pelleted nonadherent cells from the same well, and the combined sample was boiled for 5 minutes. The samples were separated by SDS-PAGE and electroblotted onto a nitrocellulose membrane. The membranes were blocked in 1% BSA and incubated with primary antibody, and then with horseradish peroxidase-conjugated secondary antibody. The blots were developed using the enhanced chemiluminescence technique.

Jurkat cells [2] = test: Microinjection of Alexa Fluor 594; type: cell-based, human; settings: 5 μg/mL reagent
Protocol: The concentration of the reagents used was 5 μg/mL.
The solutions of adhesamine (1), Type I collagen, poly-L-lysine hydrochloride, and fibronectin were prepared by diluting with PBS containing 1% (v/v) DMSO. 10 μL of each solution (1 mg/mL) was added to glass bottom culture dishes (35 mm uncoated dish). 2 mL of cell suspension in a culture medium was added to each well at a density of 2×10^5 cells/mL. After 14-hour incubation at 37° C., Alexa Fluor 594 (Molecular Probes, USA) at a concentration of 5 mg/mL was injected into Jurkat cells by using a CI-2000 automated cell injection system (Fujitsu, Japan). Success rates of the microinjection were evaluated by direct observation of the fluorescent cells through a fluorescent-microscopic window of the injection system. The data shown are means±SD for a minimum of three experiments. 20 cells were injected in each experiment.

HepG2 cells = test: Cell adhesion assay by addition, HepG2 cells; type: cell-based; settings: 0.6-60 μM in medium, 3-hour incubation, reattachment after trypsin treatment
Protocol: HepG2 cells were cultured in MEM supplemented with 10% fetal bovine serum (FBS) and 1% penicillin/streptomycin at 37° C. under 5% CO2. Jurkat cells were cultured in RPMI-1640 supplemented with 10% fetal bovine serum (FBS) and 1% penicillin/streptomycin at 37° C. under 5% CO2. For the screening of small molecule compounds, 100 μL of HepG2 suspension (2×10^5 cells/mL) was plated into 96-well plates supplied with each compound at a concentration of 20 μg/mL. After 3, 16, and 24 hours, the cells were subjected to microscopic observation to examine phenotypic changes. CHO K1 cells and CHO mutant cell lines were maintained in Ham's F-12 medium supplemented with 7.5% fetal bovine serum.
1 μL each of an aqueous solution of adhesamine (1), Type I collagen, poly-L-lysine hydrochloride, poly-L-ornithine hydrobromide, and fibronectin at a concentration of 50, 500, and 5000 μg/ml, was added to 96-well plate. […] After 3-hour incubation at 37° C., non-adherent cells were removed by washing each well with PBS three times, and the attached cells were counted with a Neubauer counting chamber (Digital Bio). […] […] Each assay was conducted in triplicate, and the means and standard derivations were calculated. […]

[3] = system: extracellular signal-regulated kinase (ERK); test: Western blotting, ERK activation; type: cell-based, human; settings: Jurkat, 6 μM
Protocol: as §1
as §2, with “The blots were developed using the enhanced chemiluminescence technique.” left out

Jurkat cells [4] = test: Cell adhesion assay by addition, Jurkat cells; type: cell-based, human
Protocol: 1 μL each of an aqueous solution of adhesamine (1), Type I collagen, poly-L-lysine hydrochloride, poly-L-ornithine hydrobromide, and fibronectin at a concentration of 50, 500, and 5000 μg/ml, was added to 96-well plate. 100 μL of HepG2 suspension (4×10^5 cells/mL) was added to each well. After 3-hour incubation at 37° C., non-adherent cells were removed by washing each well with PBS three times, and the attached cells were counted with a Neubauer counting chamber (Digital Bio). For Jurkat cells, 100 μL of cell suspension was added to each well at a density of 1×10^6 cells/ml. After 5-hour incubation at 37° C., non-adhered cells were removed by washing each well with PBS twice, and the attached cells were counted with a Neubauer counting chamber (Digital Bio). To calculate adhesion rates, firstly seeded cell numbers were assigned a value of 100%. As control tests, the same tests were conducted using wells supplied with only 1 μL of DMSO. Each assay was conducted in triplicate, and the means and standard derivations were calculated.
The comparison between adhesamine and its derivatives regarding cell adhesion promotion activity was conducted using Jurkat cells by way of reagent addition assay. 1 μL each of DMSO solutions of the compounds having concentrations of 60, 600, and 6000 μM were added to 96-well plates. The wells were supplied with 100 μL each of Jurkat cell suspensions (1×10^6 cells/mL). After 5-hour incubation at 37° C., non-adhered cells were removed by washing each well with PBS twice, and the attached cells were counted with a Neubauer counting chamber (Digital Bio). To calculate adhesion rates, firstly seeded cell numbers were assigned a value of 100%. As control tests, the same tests were conducted using well plates supplied with only 1 μL of DMSO. Each assay was conducted in triplicate, and the means and standard derivations were calculated.
However, since HepG2 cells have an intrinsic propensity to adhere to plastic tissue-culture plates, a test was conducted to determine whether the same effect was also obtained in the Jurkat cell line and human T-lymphocytes that are floating cells. Remarkably, 30% and 60% of the Jurkat cells attached to a culture plate in the presence of 6 and 60 μM of adhesamine, respectively (FIG. 1D). Removal of adhesamine by washing the plate twice with PBS detached the cells. 93% of Jurkat cells were released from the surface of a culture plate 24 hour after washing (FIG. 2). […] Simply adding adhesamine to the medium promoted adhesion of Jurkat cells onto culture plates, but not to each other.

For `CSc1nc(Cl)c(C=O)c(N2CC[N+]3(CC2)CC[N+]2(CCN(c4nc(SC)nc(Cl)c4C=O)CC2)CC3)n1` [adhesamine], the “time after stimulation at which FAK phosphorylation was demonstrated” value ([1]; 6 μM, serum-poor medium) was 5 h, the “concentration sufficient to phosphorylate FAK” value ([1]; 5 hours) was 5 µg/mL and the “effect on microinjection success” value (Jurkat cells [2]) was “more than type I collagen, poly-L-lysine hydrochloride, and fibronectin”. For the same compound, the microinjection success rates (Jurkat cells [2]) was at most 80%, the “enhancement of the adhesion of HepG2 cells” value (HepG2 cells) was “up to twofold” and the “time after incubation at which ERK was phosphorylated” value [3] was 5 h. The “Jurkat cells attached to a culture plate” value (Jurkat cells [4]; 6 μM in medium) was 30%, the “Jurkat cells attached to a culture plate” value (Jurkat cells [4]; 60 μM in medium) was 60% and the “cell attachment on addition to the medium, compared with coating reagents” value (Jurkat cells [4]; FIG. 12) was “significantly greater attachment than addition of the other coating reagents”. For the same compound, the cell-cell adhesion (Jurkat cells [4]; added to the medium) was “did not induce”.
